# Where a SMILES comes first, the peptide text is derived from it.
# Assays:
# [1] = tested on: human red blood cells (hRBCs); assay: Hemolytic activity, hemoglobin release
# Description: Hemolytic activity of the peptides was assayed against human red blood cells (hRBCs) by measuring the amount of hemoglobin released after treatment. The hRBCs, freshly collected from a healthy volunteer in polycarbonate tubes containing heparin, were washed three times in sterile phosphate buffered saline (PBS) and centrifuged at 2,000 × g for 5 min or until the supernatant became clear. […] After 1 h of incubation at 37 °C, intact hRBCs were pelleted by centrifugation at 2,000 × g for 10 min. The supernatant was transferred to a new 96-well plate and the release of hemoglobin was monitored by measurement of absorbance at 405 nm using a Multiskan FC microplate reader. The hRBCs in PBS only (ODBlank) and in 0.1% Triton X-100 (ODTriton X-100) were employed as negative (0% hemolysis) and positive (100% hemolysis) controls, respectively. The percentage of hemolysis was calculated according to the following equation: %Hemolysis=(ODSample−ABlank)/(ODTritonX−100−ODBlank)×100
# [2] = tested on: all Gram-positive strains; assay: Mean MIC and therapeutic index, Gram-positive strains; type: cell-based; conditions: 5 Gram-positive strains of Table 3
# [3] = tested on: MDR P. aeruginosa isolates; assay: MIC against all tested MDR P. aeruginosa isolates; type: cell-based, Pseudomonas aeruginosa; conditions: times higher than ciprofloxacin
# LPS from E. coli O111:B4 = assay: LPS binding, chromogenic limulus amebocyte lysate (LAL) assay; parameters: species or system Escherichia coli; conditions: 1 EU/mL LPS, 1 × to 32 × MIC, 37 °C, 30 min; result in words
# Description: The ability of PA-13 to bind LPS was assessed using a quantitative, chromogenic limulus amebocyte lysate (LAL) according to the manufacturer’s instructions (Thermo Scientific). The LAL test is a sensitive indicator of the presence of free or non-neutralized endotoxin[30]. Stock solutions of peptide were prepared in endotoxin-free water provided with the kit. […] LAL reagent was added and incubated for 10 min at 37 °C, followed by addition of a colorless substrate and incubation for a further 6 min. The reaction was stopped with 25% (vol/vol) glacial acetic acid and the release of p-nitroaniline followed by absorbance at 405 nm. Endotoxin-free water served as a negative control (blank) and was considered 0% LPS binding. After blank subtraction, the percentage of LPS binding was calculated according to the following equation: %LPSbinding=(ODUntreated-ODTreated)/ODUntreated×100
# human TLR4 (hTLR4) = assay: LPS-mediated TLR4 activation, HEK-Blue hTLR4 SEAP reporter; type: cell-based; conditions: 250 ng/ml LPS of P. aeruginosa serotype 10, 0.98-250 µg/ml peptide, 16 h; result in words
# Description: Stimulation with LPS activates NF-kB and AP-1, inducing the production of SEAP. Opposing this, the peptide can interact with LPS and inhibit TLR4 signal transduction, and so decrease production of SEAP. The hydrolysis of substrate by SEAP produces a purple/blue color.
# Briefly, HEK-Blue hTLR4 cells (3 × 10^4 cells/well) were seeded in 96-well plates and incubated at 37 °C in an air atmosphere containing 5% CO2 for 24 h. These cells were further incubated with 250 ng/ml LPS of P. aeruginosa serotype 10 (Sigma) and different concentrations of PA-13 (0.98-250 µg/ml) for 16 h. After incubation, supernatants were collected and incubated with QUANTI-Blue™ (InvivoGen). The absorbance of SEAP was monitored at 620 nm. The results were calculated from at least three independent experiments.
# [4] = tested on: Staphylococcus aureus ATCC 25923; conditions: ATCC 25923, 24 h
# [5] = tested on: Bacillus cereus ATCC 11778; conditions: ATCC 11778, 24 h
# [6] = tested on: Enterococcus faecalis ATCC 29212; conditions: ATCC 29212, 24 h
# [7] = tested on: Listeria monocytogenes 10403 s; conditions: 10403 s, 24 h
# [8] = tested on: MDR P. aeruginosa clinical isolate No.1
# [9] = tested on: MDR P. aeruginosa clinical isolate No.2; conditions: MDR clinical isolate No.2, 24 h
# [10] = tested on: MDR P. aeruginosa clinical isolate No.4; conditions: MDR clinical isolate No.4, 24 h
# [11] = tested on: MDR P. aeruginosa clinical isolate No.5; conditions: MDR clinical isolate No.5, 24 h
# [12] = tested on: MDR P. aeruginosa clinical isolate No.7; conditions: MDR clinical isolate No.7, 24 h
# [13] = tested on: MDR P. aeruginosa clinical isolate No.9; conditions: MDR clinical isolate No.9, 24 h
# [14] = tested on: MDR P. aeruginosa clinical isolate No.10; conditions: MDR clinical isolate No.10, 24 h
compound,measurement,setting,value
CC[C@H](C)[C@H](NC(=O)[C@H](CCCNC(=N)N)NC(=O)[C@H](CCCCN)NC(=O)[C@H](C)NC(=O)[C@@H](NC(=O)[C@@H](N)CCCCN)[C@@H](C)CC)C(=O)N[C@@H](Cc1c[nH]c2ccccc12)C(=O)N[C@@H](CCCCN)C(=O)N[C@H](C(=O)N[C@@H](CC(C)C)C(=O)N[C@@H](CCCNC(=N)N)C(=O)N[C@@H](CCCNC(=N)N)C(=O)N[C@@H](CCCNC(=N)N)C(N)=O)[C@@H](C)CC [PA-13] (H-KIAKRIWKILRRR-NH2; N-terminus assumed),hemolytic activity at the MIC,[1],less than 2%
same,GM (Gr.+ strains): geometric mean of MIC values from all Gram-positive strains,[2],67.19 µg/mL
same,antimicrobial activity relative to ciprofloxacin,[3],8-64 times
same,LPS binding activity,LPS from E. coli O111:B4,dose-dependent LPS binding activity
same,inhibition of LPS-mediated TLR4 activation,human TLR4 (hTLR4),dose-dependent inhibition
same,MIC,[4],62.5 µg/mL
same,MIC,[5],15.63 µg/mL
same,MIC,[6],250 µg/mL
same,MIC,[7],3.91 µg/mL
same,MIC,[8],3.91 µg/mL
same,MIC,[9],7.81 µg/mL
same,MIC,[10],7.81 µg/mL
same,MIC,[11],7.81 µg/mL
same,MIC,[12],7.81 µg/mL
same,MIC,[13],7.81 µg/mL
same,MIC,[14],7.81 µg/mL
